Literature values in patent US6642219B1, “Progestogen-antiprogestogen regimens” (Akzo Nobel N.V., priority 1997, dated 2003).

Columns and labels:
progesterone receptor = target: T1, progesterone receptor (Homo sapiens, UniProt P06401)
T1 sequence (P06401 1-933): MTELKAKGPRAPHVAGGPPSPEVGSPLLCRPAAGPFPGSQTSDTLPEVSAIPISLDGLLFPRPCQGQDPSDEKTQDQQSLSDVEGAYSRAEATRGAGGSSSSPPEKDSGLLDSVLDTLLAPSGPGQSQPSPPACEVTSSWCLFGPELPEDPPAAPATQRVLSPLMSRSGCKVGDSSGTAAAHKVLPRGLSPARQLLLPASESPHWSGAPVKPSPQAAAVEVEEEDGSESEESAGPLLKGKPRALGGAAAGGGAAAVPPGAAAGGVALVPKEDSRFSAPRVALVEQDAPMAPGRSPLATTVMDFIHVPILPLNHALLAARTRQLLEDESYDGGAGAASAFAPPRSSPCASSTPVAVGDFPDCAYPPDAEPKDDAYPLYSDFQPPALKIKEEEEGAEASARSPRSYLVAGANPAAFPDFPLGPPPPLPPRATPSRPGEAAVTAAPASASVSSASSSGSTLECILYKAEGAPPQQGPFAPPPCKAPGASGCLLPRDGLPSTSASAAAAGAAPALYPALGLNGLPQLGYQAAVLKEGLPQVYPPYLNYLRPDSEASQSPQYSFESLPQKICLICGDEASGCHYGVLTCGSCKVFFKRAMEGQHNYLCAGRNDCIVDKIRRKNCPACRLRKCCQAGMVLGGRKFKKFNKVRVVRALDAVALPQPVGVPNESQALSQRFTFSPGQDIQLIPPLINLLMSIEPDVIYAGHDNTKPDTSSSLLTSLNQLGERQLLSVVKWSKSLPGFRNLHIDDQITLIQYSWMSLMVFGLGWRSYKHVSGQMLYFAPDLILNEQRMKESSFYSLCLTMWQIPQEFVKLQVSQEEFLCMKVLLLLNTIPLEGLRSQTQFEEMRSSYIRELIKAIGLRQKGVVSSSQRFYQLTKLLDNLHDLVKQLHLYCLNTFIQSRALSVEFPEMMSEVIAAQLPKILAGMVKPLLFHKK

[1] = in vivo
[2] = based on practically applied doses

For `C#C[C@]1(O)CC[C@H]2[C@@H]3CCC4=CC(=O)CC[C@@H]4[C@H]3C(=C)C[C@@]21CC` [3-keto-desogestrel], the “progestogenic activity, compared among each other” value (progestogenic activity; [2]) is given as “relatively equipotent”.
In the case of `C#C[C@]1(O)C=C[C@H]2[C@@H]3CCC4=CC(=O)CC[C@@H]4[C@H]3CC[C@@]21CC` [Gestodene], the “progestogenic potency relative to levonorgestrel, desogestrel and 3-keto-desogestrel” value (progestogenic activity; [2]) is listed as “approximately 1.5 times”.
In the case of `C#CC1(O)CC[C@H]2[C@@H]3CCC4=CC(=O)CC[C@@H]4[C@H]3CC[C@@]21CC` (stereo partly drawn) [Norgestrel], the “progestogenic potency relative to levonorgestrel” value (progestogenic activity) is given as “about one-half”.
In the case of `C[C@@H]1C[C@@H]2C(=C3CCC(=O)C=C31)[C@@H](c1ccc(N(C)C)cc1)C[C@@]1(C)[C@H]2CC[C@@]12CCCO2` [Org 31710, (6α,11β,17β)-11-(4-dimethylaminophenyl)-6-methyl-4′,5′-dihydrospiro-[estra-4,9-diene-17,2′-(3′H)-furan]-3-one], the “anti-progestogen potency compared with RU 486” value (progesterone receptor) is given as “somewhat more potent” and the half-life [1] is given as 50 h.
For `CC(=O)c1ccc(C2CC3(C)C(CCC34OCC=C4C)C3CCC4=CC(=O)CCC4=C23)cc1` (stereo not drawn) [Org 33628, (11β,17α)-11-(4-acetylphenyl)-17,23-epoxy-19,24-dinorchola-4,9,20-trien-3-one], the “anti-progestogen potency compared with RU 486” value (progesterone receptor) is given as “somewhat more potent” and the half-life [1] is given as “approximately 15 hours”.
For `CC#C[C@]1(O)CC[C@H]2[C@@H]3CCC4=CC(=O)CCC4=C3[C@@H](c3ccc(N(C)C)cc3)C[C@@]21C` [RU 486, (11β,17β)-11-[4-(demethylamino)-phenyl]-17-hydroxy-17-(1-propynyl)esta-4,9diene-3-one], the half-life [1] is listed as roughly 20 h.
In the case of `C#C[C@]1(O)CC[C@H]2[C@@H]3CCC4=CCCC[C@@H]4[C@H]3C(=C)C[C@@]21CC` [desogestrel, 13-ethyl-11-methylene-18,19-di-nor-17α-pregn-4en-20-yn-17-ol], the “progestogenic activity, compared among each other” value (progestogenic activity; [2]) is listed as “relatively equipotent”.
